Calls of active or inactive are those of the source.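 Rule for the calls: active = AC50, the dose giving half-maximal effect, exceeds a fixed cutoff for a compound that rescues yeast growth under heat; inactive = the rest, inconclusive results apart.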

This test deals with S. cerevisiae Burl-1 ts mutant growth, BacTiter-Glo, 38.5C 24 h. Kind of test: restored growth of temperature-sensitive Burl-1 yeast – whole organism, S. cerevisiae, Burl-1 ts mutant, luminescence, counter-screen for SUMOylation pathway inhibitor project, dose response (AID 463199).
As to `Cc1ccc(S(=O)(=O)N2CCOCC2)cc1NC(=O)COC(=O)CNC(=O)c1ccccc1`, the AC50 (in general, the midpoint of the concentration-response curve, whichever way the signal moves) was > 42 µM (inactive). Under `CCOc1ccc(CCNC(=O)COC(=O)COc2ccc(C(C)=O)cc2)cc1OCC` stands > 42 µM (inactive); under `COc1cc(CN2CCNC(=O)C2CC(=O)NCCc2ncccc2C)cc(OC)c1` (stereo not drawn), > 42 µM (inactive); under `CCCc1nc(NCc2ccccc2)c(C#N)c2c1CCCC2`, > 42 µM (inactive). For `COc1ccc(N2C(=O)CC(NCc3cccs3)C2=O)cc1` (stereo not drawn), the AC50 is > 42 µM (inactive).

`O=C(NNC(=O)c1csc(N2CCOCC2)n1)c1ccc(Cl)nc1`: the AC50 was > 42 µM (inactive). For `COc1cccc(-n2c(SCC(=O)NC3CCCCC3)nc3n[nH]c(C)c3c2=N)c1`, the AC50 is > 42 µM (inactive). As to `COc1ccc(-c2csc(Nc3cc(C)ccn3)n2)cc1C`, the AC50 is > 42 µM (inactive).

As to `O=S(=O)(Nn1c(O)c(C=C2N=c3ccccc3=N2)sc1=S)c1ccccc1`, the AC50 is > 42 µM (inactive). With `Cc1ccsc1C(=O)NCCc1ccc(S(N)(=O)=O)cc1`, the AC50 is > 42 µM (inactive).

Turning to `Cc1ccc(-n2nnnc2C(Cl)(Cl)c2nnnn2-c2ccc(C)cc2)cc1`, the AC50 is > 42 µM (inactive). Under `COc1ccc(N2CCN(C(=O)C3CCCN(S(=O)(=O)c4ccc5c(c4)oc(=O)n5C)C3)CC2)cc1` (stereo not drawn) stands > 21 µM (inactive); under `CN(C/C=C/c1ccccc1[N+](=O)[O-])Cc1ccccc1`, > 42 µM (inactive); under `COc1ccc(-c2cc(C(=O)Nc3cc(C)ccc3O)no2)cc1`, > 42 µM (inactive). As for `Cn1c(CN2CCOCC2)nnc1SCC(=O)Nc1cc(Cl)ccc1Cl`, the AC50 is > 42 µM (inactive).

`Cc1nn(Cc2ccc(C(=O)Nc3ccccc3C(F)(F)F)o2)c(C)c1Br`: the AC50 was > 42 µM (inactive).

Turning to `Clc1ccc(CONc2ncnc3nonc23)c(Cl)c1`, the AC50 is 9.28 µM. The result for `COc1cccc(C2/C(=C(/O)c3ccccc3)C(=O)C(=O)N2Cc2ccco2)c1` (stereo not drawn) reads > 42 µM (inactive); that for `COc1ccc(-c2nnc(-c3cc4c(ccc5ccccc54)oc3=O)o2)cc1`, > 42 µM (inactive). Under `CCOC(=O)C1CC(c2ccccc2)=NNC1=O` (stereo not drawn) stands > 42 µM (inactive); under `COc1cccc(-n2c(Cc3cc(=O)[nH]c(=O)[nH]3)nnc2SCc2cccnc2)c1`, > 42 µM (inactive). The result for `Cc1nn(-c2ccccc2)c(N)c1N=Nc1cccc(S(=O)(=O)N2CCOCC2)c1` reads > 42 µM (inactive); that for `Cc1ccc(N(C(C)C(=O)O)S(=O)(=O)c2c(C)n[nH]c2C)cc1` (stereo not drawn), > 42 µM (inactive).

With `CC(C)(C)c1ccc(C(=O)COC(=O)CN2C(=O)NC3(CCCC3)C2=O)cc1`, the AC50 is > 42 µM (inactive). The result for `Cc1ccc(NC(=O)CC2CS(=O)(=O)CC2CC(=O)Nc2ccc(C)c(C)c2)cc1C` (stereo not drawn) reads 19.2 µM; that for `Cc1ccc(-c2noc(C3CCCN(S(=O)(=O)c4ccc5ccccc5c4)C3)n2)o1` (stereo not drawn), > 42 µM (inactive); that for `CC1CCN(C(=O)c2[nH]cnc2C(=O)NCC(=O)OCc2ccccc2)CC1`, > 42 µM (inactive). In the case of `Cc1ccc2c(C)c(C(=O)N(C)C(C)c3ccncn3)oc2c1C` (stereo not drawn), the AC50 was > 42 µM (inactive).

`Oc1ccccc1-c1cc(C(F)(F)C(F)F)[nH]n1`: the AC50 was > 42 µM (inactive).

Turning to `CCOc1ccc(/C=N/NS(=O)(=O)c2ccc(C)cc2)cc1OC`, the AC50 is > 42 µM (inactive). The result for `COc1cccc(CN(C)CC2CCCN(CCc3ccc(Cl)cc3)C2)c1OC` (stereo not drawn) reads > 42 µM (inactive); that for `CC(=O)C1(c2ccccc2)CCNCC1`, > 21 µM (inactive). Under `O=C(CCc1ccccc1)NNC(=O)c1ccc(Br)cc1` stands > 42 µM (inactive). Turning to `C/C=C/C(=O)OCC(=O)Nc1nc2ccc(C)cc2s1`, the AC50 was > 42 µM (inactive).

In the case of `Cc1ccc(S(=O)(=O)NCc2ccc(C(=O)N3CCN(c4ccccn4)CC3)cc2)cc1`, the AC50 was > 42 µM (inactive).

As to `Cc1ccc(-c2csc3ncn(CC(=O)N4CCOCC4)c(=O)c23)cc1`, the AC50 is > 42 µM (inactive).

On to `CCOc1ccc(-c2nc(C#N)c(N3CCOCC3)o2)cc1`, for which the AC50 was > 42 µM (inactive). The result for `NC(=O)C1CCN(C2CC(=O)N(c3ccc(F)c(Cl)c3)C2=O)CC1` (stereo not drawn) reads > 42 µM (inactive). Under `COC(C(=O)Nc1ccnn1C1CCN(Cc2cnn(C)c2)CC1)c1ccccc1` (stereo not drawn) stands > 42 µM (inactive); under `COc1ccccc1NC(=O)CSc1nc(O)c(Cc2ccccc2)c(=O)[nH]1`, > 42 µM (inactive). Under `Cc1cccc(N=C2C(=O)Nc3c(Cl)cccc32)c1` stands > 42 µM (inactive); under `CC(C)(C)C(=O)NC1(C(F)(F)F)NC(=O)N(c2ccccc2F)C1=O` (stereo not drawn), > 42 µM (inactive); under `O=S(=O)(c1cccc(-c2nnco2)c1)N1CCCC1`, > 42 µM (inactive).

Turning to `CCCCOc1ccc(C(=O)Nc2ccc(N3CCN(C)CC3)cc2)cc1`, the AC50 was > 42 µM (inactive). As for `CCOc1ccc(NC(=O)Nc2ccc3nsnc3c2)cc1`, the AC50 was > 42 µM (inactive). The result for `COCCn1c(-c2ccc(Cl)cc2)cnc1SCC(=O)NCCc1ccc(OC)c(OC)c1` reads > 42 µM (inactive); that for `COc1ccc(CCN2CC(C(=O)N(C)CC(=O)Nc3cccc(F)c3)CC2=O)cc1OC` (stereo not drawn), > 42 µM (inactive). Under `Cc1sc(-n2c(C)cc(C=C3C(=O)NC(=O)NC3=O)c2C)c(C#N)c1C` stands > 42 µM (inactive). Under `Cn1cc(C(=O)N2CCCC(Nc3ccc(F)cc3)C2)c2ccccc21` (stereo not drawn) stands > 42 µM (inactive). For the molecule `Cc1ccc(O)c(C)c1`, the AC50 was > 42 µM (inactive).

Consider `CC(C)CCn1c(C(C)O)nc2ccccc21` (stereo not drawn), for which the AC50 is > 42 µM (inactive). Under `CN(c1ccccc1C(=O)N1CCN(Cc2ccc3c(c2)OCO3)CC1)S(C)(=O)=O` stands > 42 µM (inactive); under `CCCCOc1ccc(CSC(=N)N)cc1Cl`, > 42 µM (inactive).

For `CC(=O)N1CCCc2cc(S(=O)(=O)Nc3ccc(C)cc3C)ccc21`, the AC50 was > 42 µM (inactive). Regarding `CC(=O)c1ccc(Nc2cc(C)nc3ccccc23)cc1`, the AC50 is > 42 µM (inactive). Under `O=C(OCc1nnc(-c2ccccc2)o1)c1ccc([N+](=O)[O-])o1` stands > 42 µM (inactive). Under `C[C@@]12C(=O)Nc3cc(F)ccc3C(=O)N1[C@H]1c3ccccc3OC[C@@H]1[C@@H]2c1ccccc1` stands > 42 µM (inactive); under `O=C(CSc1ncnc2nc[nH]c12)Nc1ccccc1C(F)(F)F`, > 42 µM (inactive).

Turning to `Cc1cc(C(=O)NNC(=O)c2ccc(C)s2)c(C)o1`, the AC50 was > 42 µM (inactive). The result for `CC(C)C(O)(C(=O)NNc1ccccc1)C(C)C` reads > 42 µM (inactive); that for `Cc1ccc(C(=O)O)cc1[N+](=O)[O-]`, > 42 µM (inactive). Under `CC1(C)C2CC=C(/C=N/NC(=S)Nc3cccnc3)C1C2` (stereo not drawn) stands > 42 µM (inactive); under `Cc1cccn2c(=O)c3cc(C(=O)NCc4cccnc4)c(=N)n(C(C)C)c3nc12`, > 42 µM (inactive); under `COc1ccc(C2=C(N)c3ccccc3C2=O)cc1`, > 42 µM (inactive). Under `Cc1cc(-c2ccc(C(C)C)c(S(=O)(=O)N3CC(=O)Nc4ccccc43)c2)on1` stands > 42 µM (inactive); under `CC1=CC(C)(C)N2C(=O)C3(NCCc4c3[nH]c3ccccc43)c3cc(C)cc1c32` (stereo not drawn), > 42 µM (inactive). For `On1c(-c2ccccc2Cl)nc2ncccc21`, the AC50 was > 42 µM (inactive). The result for `CCC1(CC)NC(=O)N(CC(=O)N2N=C(c3ccc(Cl)cc3)CC2c2ccco2)C1=O` (stereo not drawn) reads > 42 µM (inactive); that for `COc1ccccc1CNC(=O)C1CCC(CNS(=O)(=O)c2ccc(C)cc2)CC1` (stereo not drawn), > 42 µM (inactive); that for `NC(=O)CC(NC(=O)Cc1cccc2ccccc12)c1ccc(NCCCN2CCCC2=O)c([N+](=O)[O-])c1` (stereo not drawn), > 42 µM (inactive). Under `CC(C)C(=O)Nc1ccc(-c2nc3cccnc3o2)cc1` stands > 42 µM (inactive); under `COc1ccc(-c2[nH]ncc2CNCCn2cccn2)c(F)c1`, > 42 µM (inactive); under `CN(C(=O)CSc1nnc(-c2cccc(F)c2)n1N)C1CCS(=O)(=O)C1` (stereo not drawn), > 42 µM (inactive).

For the molecule `CC1CN(S(=O)(=O)c2cccc(C(=O)N=c3sccn3C)c2)CC(C)O1` (stereo not drawn), the AC50 was > 42 µM (inactive). On to `COCCCN1C(=O)c2ccc(C(=O)Nc3ccc(OC)cc3OC)cc2C1=O`, for which the AC50 was > 42 µM (inactive). As to `COc1ccc(N2CCN(C(=O)CNC(=O)Cc3ccc(Cl)cc3)CC2)cc1`, the AC50 is > 42 µM (inactive). The result for `S=c1[nH]ccn1-c1cccc(Cl)c1` reads > 42 µM (inactive); that for `O=C(N/N=C/c1cccs1)c1cncc(Br)c1`, > 42 µM (inactive); that for `COc1ccc(CN(C)C(=O)c2sccc2-c2ccccc2)c(OC)c1`, > 42 µM (inactive). Under `Fc1ccccc1-n1cc(-c2ccccc2)[nH]c1=S` stands > 42 µM (inactive); under `O=C(CN1CCN(C(=O)c2ccccc2)CC1)Nc1ncc(Br)cc1Br`, > 42 µM (inactive); under `Cc1ccc(C(=O)O)cc1N=Cc1cc(Br)cc(Br)c1O`, > 42 µM (inactive). The result for `Cc1ccc(C)c(NC(NC(=O)c2ccccn2)C(Cl)(Cl)Cl)c1` (stereo not drawn) reads > 42 µM (inactive); that for `O=C(CSc1nnc(-c2ccc(Br)cc2)o1)Nc1cccc2ccccc12`, > 42 µM (inactive).

As to `COc1ccc(N(C(=O)c2ccco2)C(C(=O)NC2CCCCC2)c2ccccc2)cc1` (stereo not drawn), the AC50 was > 42 µM (inactive). In the case of `Cc1[nH]n(-c2ccccc2)c(=O)c1C(C[N+](=O)[O-])c1ccc(Br)cc1` (stereo not drawn), the AC50 was 42.1 µM. The result for `CCOC(=O)C1(Cc2cccc(OC)c2)CCCN(S(=O)(=O)c2cccnc2)C1` (stereo not drawn) reads > 42 µM (inactive); that for `N#CC1=C(N)Nc2ncnn2C1c1ccc([N+](=O)[O-])cc1` (stereo not drawn), > 42 µM (inactive).

The values above are taken from PubChem BioAssay AID463199 (Broad Institute, 2010).
